Assay results: PMC12649353, “Bioavailability of Thymol Incorporated into Gastro-Resistant Self-Emulsifying Pellets in Rabbits” (Animals : an Open Access Journal from MDPI, 2025)
Where “and” joins values, the source holds several entries; their conditions need not be identical. Identical values can stand only once. Like-named read-outs stand apart in the source and are kept apart here.

How the values were obtained:
[1] = Thymol stability in feed (HPLC); format: physicochemical; settings: enteric SES pellets in feed
Experimental: Thymol evaporation in feed was analysed every week during thymol application using high-performance liquid chromatography (HPLC) according to the modified method of Oceľová [10] and Pisarčíková et al.. Samples were analysed in triplicate. Briefly, 2 mL of methanol was added to a glass tube containing 0.2 g of milled feed, and thymol was extracted in an ultrasonic bath. The methanolic extract was then analysed using the HPLC method with an Ultimate 3000 HPLC-system liquid chromatograph (Dionex, Sunnyvale, CA, USA). The chromatographic analyses were evaluated using Chromeleon® Software Version 6.80 SR10 Build 2906 (Thermo Fisher Scientific, Waltham, MA, USA).

[2] = Growth performance of broiler rabbits fed thymol pellets; format: in vivo; settings: for live weight / average weight gain per rabbit / conversion ratio: EG
Experimental: The experiment lasted 28 days.
Body weight (BW) and feed intake (FI) were recorded individually once a week. The average daily FI, average daily weight gain (WG) and feed conversion ratio (FCR) were calculated at the end of the period (at 56 d of age and 63 d of age).

[3] = Thymol in plasma, tissues, large intestinal content and faeces (SPME GC/MS)
Experimental: A total of 48 rabbits of both sexes (an equal male-to-female ratio per treatment) at five weeks of age were randomly divided into two dietary treatment groups (24 rabbits in each); a control group (CG) fed a standard diet to which enteric pellets without thymol were added and an experimental group (EG) fed a standard diet into which enteric pellets with thymol (250 mg/kg) were incorporated. Plasma and tissue samples from the control group were used as blank samples to construct calibration curves. The rabbits of meat line M91, maternal albinotic line (cross breed New Zealand White, Bouscat rabbit, Argente Champagnet rabbit) and paternal acromalictic line (crossbreed Nitra’s rabbit, Californian rabbit, Big light silver) were used in this experiment. The animals were fed ad libitum and had free access to drinking water. All the experimental wire-net cages (61 cm × 34 cm × 33 cm) were kept in rooms with automatic temperature and humidity control through a digital thermograph (22 ± 4 °C, 70 ± 5%). A lighting regimen of 16 h light and 8 h dark was applied throughout the experiment. The experiment lasted 28 days. The EG rabbits received feed with thymol pellets for 21 days (56 d of age) and for the next 7 days (63 d of age) received pellets without thymol incorporated into feed.
To determine the thymol content in plasma, blood (1.5 mL) from nine rabbits was collected from the marginal ear vein (vena auricularis) into heparinised Eppendorf tubes, and plasma was obtained after centrifugation at 1180× g for 15 min. The gastrointestinal tract was removed from the body cavity and was divided into the small intestine (duodenum and jejunum), caecum and colon (n = 9). Caecum and colon contents were removed, and the small intestinal lumen was gently washed with a 0.9% NaCl solution. The obtained samples of duodenal wall (DW), jejunal wall (JW) and gut content together with plasma, liver, kidney, muscle (longissimus thoracis et lumborum, LTL) and spleen tissue, fat, and faeces were immediately frozen in liquid nitrogen and stored at −70 °C until analysed. All samples were collected on both experimental days (56 or 63 d of age).
Thymol was determined using solid-phase microextraction (SPME) coupled with gas chromatography/mass spectrometry (GC/MS). The analytical system comprised an Agilent 7890A gas chromatograph (Agilent Technologies, Wilmington, DE, USA) interfaced with an Agilent 5975C Mass Selective Detector (VL MSD with Triple-Axis Detector), Agilent Technologies, Wilmington, DE, USA). Chromatographic separation was achieved on an HP-5MS capillary column (Agilent 19091S-433) with dimensions of 30 m in length, 0.250 mm inner diameter and 0.25 μm film thickness. Helium served as the carrier gas under strictly controlled flow (an initial flow rate of 2.77 mL/min and a post-run flow of 1.3 mL/min) and inlet pressure (approximately 23.27 psi). Sample preparation was carried out using solid-phase microextraction (SPME), a solvent-free and efficient extraction technique that utilises the adsorption of analytes onto a polymer-coated fibre. For this purpose, a 65 μm polydimethylsiloxane/divinylbenzene (PDMS/DVB) StableFlex fibre assembly (23Ga, Supelco 57293-U, Sigma-Aldrich, St. Louis, MO, USA) was employed in combination with a PAL autosampler (CTC Analytics, Zwingen, Switzerland). Due to fibre wear, the SPME fibre was replaced after every 40 to 60 samples to ensure consistent extraction performance.
For determination of the total content of thymol plasma and homogenized tissue samples were enzymatically hydrolysed with β-glucuronidase from Helix pomatia (Sigma-Aldrich, St. Louis, MO, USA) at 37 °C and pH 5 for 30 min to cleave thymol conjugates. Following hydrolysis, samples were salted out with sodium chloride (1.00 g), acidified with phosphoric acid (85%) and spiked with an o-cresol internal standard. All reagent concentrations and incubation conditions were applied as described in the previous study by Oceľová et al..

[4] = set-up: method as in earlier work; settings: weak acid; cited from earlier work
[5] = cited from earlier work
[6] = thymol 250 mg/kg feed, 56 d of age
[7] = powder form, after thymol withdrawal
[8] = same concentration of thymol, powder non-pelleted form

concentration of thymol in feed ([1]; 0 d of thymol application): 246.1 ± 5.8 µg/g DM | concentration of thymol in feed ([1]; 7 d of thymol application): 197.8 ± 8.3 µg/g DM | concentration of thymol in feed ([1]; 14 d of thymol application): 221.9 ± 5.1 µg/g DM | thymol in muscle ([3]; after thymol withdrawal (7 d)): below LOQ | thymol in plasma ([3]; after thymol withdrawal (7 d)): below LOQ | thymol in spleen ([3]; after thymol withdrawal (7 d)): below LOQ | Spearman correlation (rs) of thymol concentration, DW and kidney ([3]; both, rabbit, in vivo): 0.9833 | Spearman correlation (rs) of thymol concentration, DW and muscle ([3]; both, rabbit, in vivo): 0.8167 | Spearman correlation (rs) of thymol concentration, JW and muscle ([3]; both, rabbit, in vivo): 0.8500 | Spearman correlation (rs) of thymol concentration, plasma and kidney ([3]; both, rabbit, in vivo): 0.9167 | Spearman correlation (rs) of thymol concentration, plasma and muscle ([3]; both, rabbit, in vivo): 0.8667 | thymol concentration in DW, times higher than in JW ([3]; both, rabbit, in vivo): 1.1 times | thymol concentration in DW, times higher than in caecum ([3]; both, rabbit, in vivo): 1.9 times | thymol concentration in DW, times higher than in colon ([3]; both, rabbit, in vivo): 1.3 times | concentration at 21 d ([3]; both, rabbit, in vivo, 250 mg/kg): 213 ng/mL and 753 ng/g | Spearman correlation (rs) of thymol concentration, plasma and DW ([3]; both, rabbit, in vivo, 21 d): 0.9333 | thymol concentration in DW, times higher than in JW ([3]; both, rabbit, in vivo, 21 d): 1.4 times | thymol concentration in DW, times higher than in caecum ([3]; both, rabbit, in vivo, 21 d): 1.7 times | thymol concentration in DW, times higher than in colon ([3]; both, rabbit, in vivo, 21 d): 1.3 times | thymol in all tissues (plasma, liver, kidney, spleen, fat, muscle) and entire intestinal tract ([3]; rabbit, in vivo): above LOQ
Compound: Cc1ccc(C(C)C)c(O)c1 [thymol, Thymol]
live weight ([2]; 63 d of age (7 d after thymol withdrawal)): 2525 ± 63.2 g | average weight gain per rabbit ([2]; 63 d of age (after withdrawal)): 40.24 ± 2.94 g/day | conversion ratio ([2]; 63 d of age (after withdrawal)): 4.24 ± 0.29 | average weight gain per rabbit [2, 6]: 36.25 ± 1.48 g/day | conversion ratio [2, 6]: 4.44 ± 0.25 | live weight ([2]; thymol 250 mg/kg feed, 56 d of age (21 d with thymol)): 2497 ± 46.9 g | growth performance ([2]; thymol addition 250 mg/kg feed vs control): not influenced | dissociation constant pKA [4]: 10.62 | thymol in all intestinal segments and organs [5, 7]: below the detection limit | thymol in spleen [5, 7]: not detected | thymol in muscle and fat tissues ([5]; powder form, during application): below the detection limit | thymol concentration in DW, times lower than in caecum [5, 8]: 3.3 times | thymol concentration in DW, times lower than in colon [5, 8]: 2.5 times
